Tests used:
[1] = test system: EAE mice; assay: EAE model in mice, clinical course (onset and severity); assay type: in vivo, C57BL/6 mice; conditions: intragastric administration, 50 mg/kg once per day and higher doses, day 0 to day 30; FIG. 1
Method: (§1) EAE was induced in C57BL/6 mice (six mice per group) by subcutaneous injection of 0.1 ml of […] (in PBS, 300 μg/per mouse) on day 0, emulsified with Complete Freund's adjuvant (1:1) supplemented with Mycobacterium tuberculosis H37Ra antigen (400 μg/per mouse) or with Complete Freund's adjuvant alone as a control. All mice immunized with MOG received 250 ng pertussis toxin prepared in PBS, on days 0 and 2 by intraperitoneal injection.
(§2) Line leaf inula flower lactone A 45.3 g (from Example 1) was suspended in 0.5% CMC—Na (carboxymethyl cellulose sodium) to make a mixture with final concentration as 10 mg/ml, then diluted to four concentration gradients: (1) 25 mg/kg per day; (2) 50 mg/kg per day; (3) 100 mg/kg per day; (4) 200 mg/kg per day. The drug was given to the mice by intragastric administration from day 0 to day 30.

[2] = test system: brain tissue of EAE mice; assay: HE staining of brain tissue of EAE mice; assay type: in vivo, C57BL/6 mice; conditions: intragastric administration, 50 mg/kg and higher doses; FIG. 2
Method: as §1, §2

C=C1C(=O)O[C@H]2C[C@@H](C)[C@@H]3[C@@H](OC(C)=O)C[C@H](O)[C@@]3(C)[C@@H](OC(C)=O)[C@H]12 [line leaf inula flower lactone A]
onset of EAE [1]: significantly delay the onset of EAE
severity of the disease (EAE) [1]: reduced the severity of the disease
arrangement of the organization (brain tissue, HE staining) [2]: basically returned to normal condition
inflammatory cells in brain and blood vessels (HE staining) [2]: reduced number of inflammatory cells in brain and blood vessels

From US20150105458A1, “LINE LEAF INULA FLOWER LACTONE A AND METHODS FOR PREPARING AND USING THE SAME FOR TREATING MULTIPLE SCLEROSIS” (SHANXI ZHENDONG PILOT BIOLOGICAL SCIENCE AND TECHNOLOGY …, priority 2012, published 2015)
